Reference: patent US6784155B1, “Inhibitor and stimulator of stem cell proliferation and uses thereof” (Wellstat Therapeutics Corporation, priority 1996, dated 2004)
No end group written: not given here. *: point of attachment. Biotin = O=C1N[C@H]2[C@H](CS[C@H]2CCCCC(=O)*)N1; C4 linker = not defined here

Legend:
CFU-MIX [1] = test: CFU-MIX cycling assay in vitro (Ara C kill); assay type: cell-based, mouse
Description: A similar assay can be performed in vitro, using the cycling status of CFU-MIX instead of CFU-S. The assay is performed as described above for the CFU-S assay except that cytosine arabinoside (Ara C, 30 micrograms/ml) is used as the cycle-specific toxic agent instead of high dose tritiated thymidine (see B. I. Lord in Haemopoiesis—A Practical Approach, N. G. Testa and G. Molineux (Eds.), IRL Press 1993; Pragnell et al. in Culture of Hematopoietic Cells, R. I. Freshney, I. B. Pragnell and M. G. Freshney (Eds.), Wiley Liss 1994) and a mouse strain with high endogenous cycling rates (Balb/c) is used instead of testosterone-treated BDFI mice.
(§1) 24 hours later (Day 1), varying doses of peptide 43-55 or vehicle were injected i.v. Bone marrow was harvested on Day 2 and the […] cycling assay conducted as in Example 14. Specifically, mice were sacrificed and single cell bone marrow suspensions prepared from the femurs. The cells were washed once and the concentration adjusted to 5×10^6 cells/ml in Fischer medium. For each test condition, one milliliter of cells was added to each of two polypropylene tubes. The tubes were incubated at 37° C. for 3 hours without (“Control”) or with (“Experimental”) the appropriate concentration of test substance. At the end of the incubation, 30 μg/ml of cytosine arabinoside (“Ara C” (Sigma)) was added to half of the tubes and the same volume of Fischer's medium was added to the others. The tubes were incubated for a further 1 hour at 37° C., after which they were placed on ice and washed twice with cold Fischer medium.
(§2) The cells were readjusted to 5×10^4-10^6/ml in Fischer's medium and 0.5 ml of cell suspension added to 5 ml of Methocult M3430 methylcellulose medium (Stem Cell Technologies, Vancouver, British Columbia). The mixture was vigorously mixed with a vortex and 1 ml was dispensed into each of five 35 mm dishes. The 35 mm dishes were in turn placed in a covered 150 mm dish with one open 35 mm dish containing sterile water. CFU-MIX colonies were counted with the use of an inverted microscope after 7 days of incubation at 37° C.
Differences in colony number between the tubes treated with medium versus the tubes treated with Ara C represent the percentage of cells in cycle under that condition according to the formula:
a=Number of CFU-MIX from tube incubated with medium alone
b=Number of CFU-MIX from tube incubated with Ara C

CFU-MIX [2] = test: Stimulation of cycling of quiescent murine stem cells, CFU-MIX cycling assay in vitro; assay type: cell-based, mouse
Description: Microgram per milliliter doses of hemoglobin chains, myoglobin and peptides were assayed for stimulation of quiescent stem cells. Bone marrow was obtained from untreated B6D2F1 tested in the CFU-MIX cycling assay as in Example 24. Stem cells isolated from untreated B6D2F1 mice are normally slowly cycling unless stimulated (e.g. by testosterone propionate (cf. Example 1) or chemotherapy such as 5FU (cf. Example 4)) to enter into cycle.

CFU-GEMM [3] = test: CFU-GEMM cycling assay, mobilized human peripheral blood; assay type: cell-based
Description: Peripheral blood was obtained from breast cancer patients undergoing peripheral stem cell mobilization with cyclophosphamide and G-CSF according to standard protocols. Red blood cells were removed with FicolU Hypaque (cells were diluted 1:1 with IMDM and 20 ml layered on top of 16 ml Ficoll and centrifuged at 800 g for 30 minutes; mononuclear cells were removed from the interphase and washed twice in IMDM). In one case mononuclear cells were stored frozen in liquid nitrogen before assay. The mononuclear cells were plated for the CFU-GEMM cycling assay as in Example 26 except that 2.5-5×10^5 cells were plated per dish.

CFU-GEMM [4] = test: CFU-GEMM cycling assay, human umbilical cord blood cells; assay type: cell-based; settings: Table 32, cord blood mononuclear cells
Description: In order to investigate the ability of purified INPROL from porcine bone marrow to affect cycling on human progenitors, umbilical cord blood cells were obtained. Either the total mononuclear cell fraction obtained after separation on Ficoll or the CD34^+ fraction obtained after fractionation on anti-CD34 affinity columns (CellPro Inc.) was used. Cells were incubated for 48 hours in vitro in the presence of interleukin 3 (IL-3) and stem cell factor (SCF) (100 ng/ml each) in order to ensure that the early stem cells were in cycle. After this preincubation, cycling assays were conducted as described in Example 14 for the mouse except that CFU-GEMM (instead of CFU-MIX) were counted on Day 18 after plating.
The human cord blood CFU-GEMM cycling assay was conducted as in Example 19. Specifically, mononuclear cells were isolated from human umbilical cord blood cells and adjusted to 24×10^4 cells/ml in IMDM tissue culture medium supplemented with 10% FBS, 100 ng/ml kit ligand and 100 ng/ml human IL-3. The cells were incubated for 48 hours at 37° C.
After incubation, cells were washed and resuspended in serun-free NDM at a concentration of 10^6 cells/ml. One ml of cells was added to each of two polypropylene tubes per condition and the cycling assay conducted as in Example 24 for mouse bone marrow. After the Ara C incubation cells were washed with cold NDM and adjusted to 10,000 to 20,000 cells per 0.5 ml IMDM and mixed with 5 ml Methocult H4433 (Stem Cell Technologies). Alternatively, Methocult H4435 methylcellulose medium (Stem Cell Technologies) was used in which case the cell concentration was adjusted to 2500-5000 cells per 0.5 ml IMDM. The cells were plated as in Example 24 and CFU-GEMM colonies scored on days 14-18.

CFU-MIX [5] = test: CFU-MIX cycling assay after in vivo injection into testosterone or 5FU treated mice; parameters: species or system mouse
Description: In order to test the ability of purified porcine hemoglobin chains to act in vivo, BDF1 mice were injected with testosterone propionate as described in Example 1. Twenty four hours later, mice received 500 ng of either pINPROL, porcine hemoglobin alpha chain (purified from peripheral red blood cells as in FIG. 21), porcine beta chain (purified from peripheral red blood cells as in FIG. 21) or the equivalent volume of carrier intravenously. Forty eight hours later the bone marrow from each mouse was harvested and the CFU-MIX assay conducted as described in Example 14.
To assess the stem cell inhibitory activity of peptide 43-55 in vivo, B6D2 F1 mice were pre-treated with testosterone propionate as described in Example 1 or with 5FU. Specifically, testosterone propionate (100 mg/kg body weight) was injected i.p. on Day 0 into mice. Alternatively, mice were injected on Day 0 with 5FU ([…] body weight).
as §1, §2
Differences in colony number between the tubes treated with medium versus the tubes treated with Ara C represent the percentage of cells in cycle under that condition according to the formula: […]

[6] = Table 39, untreated B6D2F1 bone marrow, 10^−3M
[7] = Table 39, untreated B6D2F1 bone marrow, 10^−5M
[8] = Table 26, Balb/c bone marrow, 10^−5M
[9] = Table 26, Balb/c bone marrow, 10^−7M
[10] = Table 26, Balb/c bone marrow, 10^−9M
[11] = Table 13, bone marrow from Balb/c mice, 100 ng/ml
[12] = Table 38, untreated B6D2F1 bone marrow, concentration printed only as (μg/ml)
[13] = Table 10, testosterone-treated BDF1 mice, 500 ng intravenously (footnote: 100 ng/ml), marrow 48 hours later
[14] = Table 9, bone marrow from Balb/c mice, 100 ng/ml

1-94 fragment: purified formic-acid cleaved fragment, amino acids 1-94 of human alpha hemoglobin chain
% Kill (CFU-MIX [1]; Table 20, Balb/c bone marrow, 100 ng/ml): 0%

CC(C)C[C@@H](NC(=O)[C@H](Cc1ccccc1)NC(=O)CNC(=O)[C@@H](C)NC(=O)[C@@H](N)Cc1ccc(O)cc1)C(=O)O [DADLE, reference compound]
% Kill (CFU-MIX [2]; [6]): 0%
% Kill (CFU-MIX [2]; [7]): 0%

C[C@@H](NC(=O)[C@@H](N)Cc1ccc(O)cc1)C(=O)NCC(=O)N(C)[C@@H](Cc1ccccc1)C(=O)NCCO [DAMGO, (D-Ala^2,N-Me-Phe^4,Gly-ol^5)-Enkephalin, reference compound]
% Kill (CFU-MIX [1]; [8]): 15%
% Kill (CFU-MIX [1]; [9]): 0%
% Kill (CFU-MIX [1]; [10]): 38%
% Kill (CFU-GEMM [3]; Table 35, Patient #2, 10^−7M): 15%
% Kill (CFU-GEMM [3]; Table 35, Patient #2, 10^−9M): 0%

CN1CC[C@]23c4c5ccc(O)c4O[C@H]2[C@@H](O)C=C[C@H]3[C@H]1C5 [Morphine, morphine, reference compound]
% Kill (CFU-MIX [1]; Table 25, Balb/c bone marrow, 10^−7M): 10%
% Kill (CFU-MIX [1]; Table 25, Balb/c bone marrow, 10^−9M): 15%
% Kill (CFU-MIX [1]; Table 25, Balb/c bone marrow, 10^−11M): 32%
% Kill (CFU-GEMM [3]; Table 35, Patient #2, 10^−7M): 24%
% Kill (CFU-GEMM [3]; Table 35, Patient #2, 10^−9M): 0%

C=CCN1CC[C@]23c4c5ccc(O)c4O[C@H]2C(=O)CC[C@@]3(O)[C@H]1C5 [Naloxone, naloxone, reference compound]
effect of naloxone itself on the assay (CFU-MIX [1]; 10^−5-10^−7M): no effect
% Kill (CFU-MIX [1]; Table 28, naloxone alone, 10^−5M final concentration): 36%
% Kill (CFU-MIX [1]; Table 30, 10^−10M): 0%

(D-Arg^2, Lys^4)-Dermorphin-(1-4)-amide [DALDA, reference compound]
% Kill (CFU-MIX [1]; [8]): 47%
% Kill (CFU-MIX [1]; [9]): 0%
% Kill (CFU-MIX [1]; [10]): 34%
% Kill (CFU-MIX [2]; [6]): 41%
% Kill (CFU-MIX [2]; [7]): 24%

Biotinylated alpha chain: human hemoglobin alpha chain from hemoglobin treated with NHS LC Biotin
% Kill (CFU-MIX [1]; [11]): 7%

Biotinylated beta chain: human hemoglobin beta chain from hemoglobin treated with NHS LC Biotin
% Kill (CFU-MIX [1]; [11]): 25%

Biotinylated peptide 43-55: Peptide 43-55 with biotin linked via a C4 carbon linker to the N-terminal NH2 of Phe43 ({Biotin-C4 linker}-FPHFDLSHGSAQV; reading uncertain; UniProt P69905 44-56, looked up, fragment)
% Kill (CFU-MIX [1]; Table 24, 1 ng/ml): 15%

DALTNAVAHVDDMPNALSA [Peptide 64-82, amino acids 64-82 of human alpha hemoglobin]
% Kill (CFU-GEMM [4]; 1 ng/ml): 21%
% Kill (CFU-GEMM [4]; 10 ng): 20%
% Kill (CFU-GEMM [4]; 100 ng/ml): 39%
% Kill (CFU-MIX [1]; Table 18, 100 ng/ml): 9%
% Kill (CFU-MIX [2]; Table 42, untreated B6D2F1 bone marrow, 1 μg/ml): 25%

H-D-Phe-Cys-Tyr-D-Trp-Orn-Thr-Pen-Thr-NH2 [CTOP, reference compound]
effect of CTOP itself on the assay (CFU-MIX [1]; 10^−7 M): no effect
% Kill (CFU-MIX [1]; Table 31, CTOP alone, 10^−7M final concentration): 36%

Human beta chain: purified human hemoglobin beta chain
% Kill (CFU-MIX [1]; Table 11, bone marrow from Balb/c mice, 100 ng/ml): 41%
% Kill (CFU-MIX [1]; [11]): 55%
% Kill (CFU-MIX [2]; [12]): 55%

Human delta chain: purified human hemoglobin delta chain
% Kill (CFU-MIX [1]; Table 12, bone marrow from Balb/c mice, 100 ng/ml): −4%
% Kill (CFU-MIX [1]; Table 29, 100 ng/ml, alone): 10%

Human hemoglobin: human hemoglobin
% Kill (CFU-MIX [5]; Table 14, testosterone-treated BDF1 mice, 500 ng/mouse): −31%

Leu-Val-Val-Tyr-Pro-Trp-Thr-Gln-Arg-Phe (LVVYPWTQRF; printed: Leu-Val-Val-Tyr-Pro-Trp-Thr-Gln-Arg-Phe) [Hemorphin 10, reference compound]
% Kill (CFU-MIX [1]; Table 18, 100 ng/ml): 1%
% Kill (CFU-MIX [1]; Table 28, 100 ng/ml, alone): 0%

Porcine alpha chain: porcine hemoglobin alpha chain purified from peripheral red blood cells as in FIG. 21
% Kill (CFU-MIX [5]; [13]): 5%
% Kill (CFU-MIX [1]; [14]): −4%

Porcine beta chain: porcine hemoglobin beta chain purified from peripheral red blood cells as in FIG. 21
% Kill (CFU-MIX [5]; [13]): −5%
% Kill (CFU-MIX [1]; [14]): −14%

VVYPWTQR [Hemorphin 7, reference compound]
% Kill (CFU-MIX [1]; Table 18, 100 ng/ml): 0%

B1: Human Myoglobin: human myoglobin (protein, UniProt P02144 2-154, looked up)
Myoglobin: GLSDGEWQLVLNVWGKVEADIPGHGQEVLIRLFKGHPETLEKFDKFKHLKSEDEMKASEDLKKHGATVLTALGGILKKKGHHEAEIKPLAQSHATKHKIPVKYLEFISECIIQVLQSKHPGDFGADAQGAMNKALELFRKDMASNYKELGFQG
stem cell inhibitory activity, in words (CFU-MIX [1]; CFU-MIX cycling assay): inactive
% Kill (CFU-MIX [2]; [12]): 30%
